± gives the standard deviation of the averaged measurements.
Tested on: HepaRG
Assay: LDH release cytotoxicity, % of total lysis control; higher = more cytotoxic
Details: 48 h
Method in brief: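 Duplicate wells of single-lot HepaRG cells, grown on collagen I-coated 96-well plates, received eight-point half-log series of test chemicals with 100 µM as the top concentration. Exposure lasted 48 h in serum-free induction medium with 0.5% DMSO, while total lysis wells received 0.1% Triton X. Resorufin fluorescence (CytoTox-ONE, Tecan Safire) was used to quantify LDH leaked into 50 µL of spent medium. Values for percent cytotoxicity were normalized to on-plate vehicle and total lysis controls and averaged across the duplicates.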

SMILES | LDH release cytotoxicity (0.03162 µM) [%] | LDH release cytotoxicity (0.1 µM) [%] | LDH release cytotoxicity (0.3162278 µM) [%] | LDH release cytotoxicity (1 µM) [%] | LDH release cytotoxicity (3.16228 µM) [%] | LDH release cytotoxicity (10 µM) [%] | LDH release cytotoxicity (31.6228 µM) [%] | LDH release cytotoxicity (100 µM) [%] | LDH release cytotoxicity (0.031623 µM) [%] | LDH release cytotoxicity (0.316228 µM) [%] | LDH release cytotoxicity (0.0327296 µM) [%] | LDH release cytotoxicity (0.1035 µM) [%] | LDH release cytotoxicity (0.327296 µM) [%] | LDH release cytotoxicity (1.035 µM) [%] | LDH release cytotoxicity (3.27296 µM) [%] | LDH release cytotoxicity (10.35 µM) [%] | LDH release cytotoxicity (32.729574 µM) [%] | LDH release cytotoxicity (103.5 µM) [%]
CNC1CCC(c2ccc(Cl)c(Cl)c2)c2ccc(S(N)(=O)=O)cc21 (stereo unspecified) | -1.64 ± 0.43 | -2.15 ± 0.55 | -1.81 ± 0.055 | -1.88 ± 0.57 | -1.12 ± 0.32 | -0.337 ± 0.06 | 15 ± 0.65 | 81.4 ± 3.4 |  |  |  |  |  |  |  |  |  | 
CNCc1cc(F)ccc1Oc1ccc(Cl)c(Cl)c1 | -11 ± 1.1 | -10.04 ± 0.031 | -10.6 ± 1.2 | -10.4 ± 0.19 | -11.2 ± 0.63 | -10 ± 1.1 | -8.03 ± 1.4 | 75.6 ± 5.6 |  |  |  |  |  |  |  |  |  | 
CNS(=O)(=O)c1cc(C(=O)N2CCC(CCN3C4CCC3CC(n3c(C)nc5ccccc53)C4)(c3cccc(F)c3)CC2)c(Cl)cc1F (stereo unspecified) | -1.92 ± 0.56 | -0.773 ± 0.51 | -1.36 ± 0.34 | -1.37 ± 0.31 | -1.08 ± 0.021 | -0.27 ± 0.57 | 10.5 ± 0.32 | 23.1 ± 0.81 |  |  |  |  |  |  |  |  |  | 
COc1cc(S(=O)(=O)O)c(C)cc1N=Nc1c(O)ccc2cc(S(=O)(=O)O)ccc12 | -0.0925 ± 0.66 | -0.495 ± 0.4 | -0.745 ± 0.75 | -1.36 ± 1.1 | -1.42 ± 0.71 | -1.6 ± 0.25 | -1.96 ± 0.065 | -2.81 ± 0.42 |  |  |  |  |  |  |  |  |  | 
COc1ccc(OC(F)(F)F)cc1CNC1CCCNC1c1ccccc1 (stereo unspecified) | -0.49 ± 0.062 | -0.83 ± 0.43 | -1.38 ± 0.18 | -1.02 ± 1.2 | -1.52 ± 1.2 | -0.56 ± 0.84 | 5.16 ± 0.72 | 88 ± 10 |  |  |  |  |  |  |  |  |  | 
COc1cc(C=O)cc2c1C(COC(N)=O)C1(OC(C)=O)ON2CC2C1N2C(C)=O (stereo unspecified) | -0.71 ± 0.46 | -0.654 ± 0.1 | 1.14 ± 1.2 | 17.5 ± 1.6 | 62.9 ± 2.6 | 67.8 ± 2.4 | 73 ± 2.2 | 73.3 ± 2.3 |  |  |  |  |  |  |  |  |  | 
COc1ccc(C=CS(=O)(=O)NC(=O)c2ccc(C)cc2Cl)cc1 | -1.21 ± 0.38 | -1.99 ± 0.4 | -1.66 ± 0.63 | -1.597 ± 0.014 | -1.41 ± 0.3 | -1.42 ± 0.38 | -0.383 ± 0.54 | 1.21 ± 0.62 |  |  |  |  |  |  |  |  |  | 
COCCOc1cc2cc(C(=O)NC3CCN(C(C)C)CC3)n(CC(=O)Nc3ccc(Cl)cn3)c2cn1 | -0.433 ± 0.89 | -0.956 ± 0.47 | -0.802 ± 0.14 | -1.56 ± 0.7 | -0.955 ± 0.44 | -0.194 ± 0.17 | 13.4 ± 1 | 96.77 ± 0.093 |  |  |  |  |  |  |  |  |  | 
CSc1ccc(Oc2ccc(S(N)(=O)=O)cc2CN(C)C)cc1C | -1.53 ± 0.56 | -2.12 ± 0.38 | -3.24 ± 1 | -3.17 ± 0.95 | -2.65 ± 0.17 | -1.44 ± 0.31 | -1.38 ± 0.35 | 13.7 ± 1.8 |  |  |  |  |  |  |  |  |  | 
O=C(NC(c1ccccc1)C1CCCCN1)c1cccc(C(F)(F)F)c1Cl (stereo unspecified) | -1.29 ± 1.3 | -1.57 ± 0.071 | -0.0611 ± 0.068 | -1.79 ± 0.54 | -0.61 ± 1.2 | 0.734 ± 0.85 | 24.2 ± 1.3 | 86.2 ± 3.2 |  |  |  |  |  |  |  |  |  | 
O=C(NS(=O)(=O)C=Cc1cccs1)c1ccc(F)cc1Br | -1.33 ± 0.59 | -1.47 ± 0.055 | -1.39 ± 0.25 | -2.27 ± 0.8 | -1.8 ± 0.55 | -1.418 ± 0.0065 | -0.73 ± 0.11 | -0.319 ± 0.11 |  |  |  |  |  |  |  |  |  | 
NC(=O)N(O)C1C=CC(Oc2cccc(Oc3ccc(F)cc3)c2)C1 (stereo unspecified) | -0.313 ± 0.089 | -0.862 ± 0.21 | -1.12 ± 0.51 | -0.265 ± 0.5 | -0.557 ± 0.086 | -1.09 ± 0.79 | 1.56 ± 0.69 | 19.5 ± 2.4 |  |  |  |  |  |  |  |  |  | 
NC(=O)N1C(=O)C(C(=O)c2cc(Cl)cs2)c2cc(F)c(Cl)cc21 (stereo unspecified) | -0.6756 ± 0.0047 | -0.635 ± 1.4 | -0.381 ± 0.96 | -0.761 ± 0.069 | -0.334 ± 0.65 | 1.12 ± 0.053 | 64.6 ± 1 | 50.6 ± 8.4 |  |  |  |  |  |  |  |  |  | 
NCC1(Cc2noc(=O)[nH]2)CCCCC1 | -1.45 ± 0.35 | -1.66 ± 0.47 | -1.14 ± 0.84 | -1.29 ± 0.97 | -1.26 ± 0.87 | -1.72 ± 0.14 | -2.07 ± 0.18 | 17.4 ± 1.5 |  |  |  |  |  |  |  |  |  | 
O=C(O)C1(c2ccc3c(c2)OCC(Cc2ccc(-c4ccccc4)cc2)C3O)CCCC1 (stereo unspecified) | -0.731 ± 0.23 | -0.599 ± 0.46 | -0.19 ± 0.2 | -0.676 ± 0.19 | -0.648 ± 0.37 | 0.306 ± 0.15 | 2.92 ± 0.35 | 72.9 ± 7 |  |  |  |  |  |  |  |  |  | 
O=C(NC1CN2CCC1CC2)c1ccc2c(c1)OCCO2 (stereo unspecified) | -2.41 ± 0.21 | -1.45 ± 0.99 | -1.86 ± 0.11 | -1.29 ± 0.88 | -1.81 ± 0.071 | -1.38 ± 0.38 | -1.38 ± 0.035 | 0.204 ± 0.59 |  |  |  |  |  |  |  |  |  | 
COC(=O)C(C)Oc1ccc(Oc2ccc(Cl)cc2Cl)cc1 (racemic) [Methyl (RS)-2-[4-(2,4-dichlorophenoxy)phenoxy]propionate] | -0.971 ± 1.5 | -1.59 ± 0.12 | -1.59 ± 1.4 | -2.24 ± 0.54 | -1.38 ± 0.41 | -1.28 ± 0.4 | -1.8 ± 0.099 | -0.104 ± 0.18 |  |  |  |  |  |  |  |  |  | 
CC(O)CN(CCN(CC(C)O)CC(C)O)CC(C)O (stereo unspecified) [1,1',1'',1'''-(Ethanediylnitrilo)tetrakis(2-propanol)] | -1.14 ± 0.41 | -1.86 ± 1.1 | -1.7 ± 0.17 | -2.22 ± 0.98 | -2.41 ± 0.2 | -1.35 ± 1.4 | 5.57 ± 1.1 | 18.7 ± 1.4 |  |  |  |  |  |  |  |  |  | 
C[N+]1(C)CCCCC1 [1,1-Dimethylpiperidinium chloride] | -1.22 ± 0.36 | -0.187 ± 0.78 | -1.4 ± 0.52 | -1.35 ± 0.62 | 0.248 ± 0.65 | 0.722 ± 0.62 | -0.465 ± 0.11 | 0.762 ± 0.26 |  |  |  |  |  |  |  |  |  | 
c1ccc2[nH]nnc2c1 [1,2,3-Benzotriazole] | -1.49 ± 0.2 | -1.03 ± 0.94 | -1.12 ± 0.52 | -1.12 ± 0.55 | -1.23 ± 0.65 | -0.765 ± 0.061 | 0.381 ± 0.99 | 1.81 ± 0.42 |  |  |  |  |  |  |  |  |  | 
Clc1cccc(Cl)c1Cl [1,2,3-Trichlorobenzene] |  | -2.59 ± 0.72 |  | -2.67 ± 0.31 | -3.67 ± 0.82 | -2.75 ± 0.99 | -2 ± 0.85 | -0.185 ± 0.67 | -0.151 ± 0.71 | -3.02 ± 0.044 |  |  |  |  |  |  |  | 
ClCC(Cl)CCl [1,2,3-Trichloropropane] | -1.72 ± 1.1 | -1.57 ± 0.41 | -1.6 ± 0.79 | -0.683 ± 0.4 | -0.233 ± 1.1 | -1.91 ± 0.066 | -1.01 ± 0.093 | 0.236 ± 0.36 |  |  |  |  |  |  |  |  |  | 
Clc1cc(Cl)c(Cl)cc1Cl [1,2,4,5-Tetrachlorobenzene] | -1.15 ± 0.52 | -1.29 ± 0.64 | -0.238 ± 1.4 | -1.08 ± 0.043 | -0.932 ± 0.35 | -0.175 ± 0.34 | -0.116 ± 0.54 | 1.14 ± 0.66 |  |  |  |  |  |  |  |  |  | 
Clc1ccc(Cl)c(Cl)c1 [1,2,4-Trichlorobenzene] | -0.83 ± 0.22 | -0.799 ± 0.65 | -1.05 ± 0.33 | -0.848 ± 0.19 | -1.46 ± 0.75 | -0.626 ± 0.011 | -0.776 ± 0.65 | -0.785 ± 0.46 |  |  |  |  |  |  |  |  |  | 
Cc1ccc(C)c(C)c1 [1,2,4-Trimethylbenzene] | -1.1 ± 0.13 | -1.09 ± 0.14 | -1.49 ± 0.63 | -1.38 ± 0.46 | -0.646 ± 0.4 | -0.854 ± 0.4 | 0.161 ± 0.23 | 1.55 ± 0.46 |  |  |  |  |  |  |  |  |  | 
O=Cc1ccccc1C=O [1,2-Benzenedicarboxaldehyde] | -1.01 ± 0.34 | -0.945 ± 0.21 | -1.43 ± 0.23 | -0.52 ± 1.3 | -0.768 ± 0.29 | -0.0584 ± 0.28 | 1.36 ± 0.23 | 7.96 ± 1.3 |  |  |  |  |  |  |  |  |  | 
O=c1[nH]sc2ccccc12 [1,2-Benzisothiazolin-3-one] |  |  |  |  |  |  |  |  |  |  | -0.0461 ± 1.4 | -0.556 ± 0.24 | -0.331 ± 0.21 | -0.299 ± 0.034 | -0.612 ± 0.23 | -0.701 ± 0.032 | 0.567 ± 0.56 | 2.85 ± 2.2

Reference: the supplement of paper PMC7840683
